According to paper PMC12851007 (Angewandte Chemie (International Ed. in English), 2025):
Read-outs that look alike come from different tables or passages of the source.

Legend:
[1] = CX4/LCG supramolecular tandem membrane assay, POPC vesicles; type: in vitro ADME; details: 30 µM peptide; 25 µM POPC⸧CX4/LCG-LUVs (inside 700 µM CX4, 500 µM LCG) in 10 mM Hepes, pH 7.0, 25 °C; fluorescence λexc 369/λem 502 nm; peptide at 60 s, TX-100/protamine at 600 s; fractional activity; n = 1
Procedure: Membrane Activity M easurements
Vesicle preparation. 100 µ L of a solution of 25 mg/ml of POPC in chloroform or 200 µ L of a solution of 25 mg/ml of EYPC in chloroform was purged with nitrogen and dried overnight under hi gh vacuum. The thin lipid film was rehydrated with 1 ml reh ydrati on buffer (= inside buffer, see Tabl e S2 ) b y agitation at room temperature for 30min and then subjected to 2 0 freeze- th aw c ycles (freezing in liquid nitro gen and thawing at 40 °C). […]
Ta b l e S 2. Combinations of lipids and inside and outside buffer for CX4/LCG -LUVs.
No. Lipid Inside buffer = rehydration buffer Outside buffer
(4) POPC 10 mM Hepes, 700 µM CX4, 500 µM LCG, 10 mM Hepes buffer, 175 mM glucose, pH 7.5 [a] 175 mM glucose, pH 7.5 [a]
[a] Glucose b uffers (183 mOsm/L at 25 °C) were used within one week after preparation.
Vesicle quality control. T o ensure the absence of the CX4/ LCG reporter pair in the ex travesicular ph ase, 20 µL of the collected liposome fr action w as diluted to 2 ml with outside buffer and the fluor escen ce (λ exc = 369 nm; λ em = 502 nm) was recorded during the addition of […]
The final lipid content in the liposome suspension after p repa rat ion and separ ation was d etermined b y NMR as p reviousl y reported. Assay protocol. An appropriate volume of the liposome stock solutions was diluted to 2m L with outside buffer in a 10 ×10 mm quartz glass cuvette to afford a phospholipid concentration of 25 µM. The cuvette was placed into a thermostatted fluorimeter sample holder at 25.0 °C and gentl y stirred at 300 rpm. Subsequently, the time-dependent change in fluorescence intensity (λ exc = 369 nm; λ em = 502 nm) was record ed during addition of 20 µ L of peptide stock solutions of varying concentrations at 60 s. At 600 s, 20µ L o f a solution containing 1.6% (wt/vol) TX-100 and 1.5 mM protamine was added for calibration to affo rd 0.016% (wt/vol) TX-100 and 15 µM protamine final concent rations.
Time-dep endent fluores cence intensit y traces, I (t), were subsequentl y normalized to fractional intensities, If(t), using equation (1). Therein, I 0 is the intensity just before addition of peptide and I ∞ is the constant intensit y after addition of the calibration cockt ail.
IIf (tt ) = II (tt )−II0II∞ − II0 (1)
The concentration-dependent fractional intensities just before the addition of the calibration cocktail, If, were then normalized to fractional membrane activities, Y, using equation (2).
Therein, If,0 is the fractional intensit y just before addition of the calibration cocktail in absence of peptide and I f,∞ is the constant fractional intensity after addition of the calibration cocktail.
YY = IIf − IIf,0IIf,∞ − IIf,0 (2)
The fractional membrane activities, Y, were subsequently plotted against the peptide concentration, c, and analysed using the Hill equation (3) to obtain the effective molar concentration, EC50, and the Hill coefficient, n. Y0 and Y ma x are the fractional membrane activities in absen ce o f p eptide and at max imal peptide concent rations. For peptides with too little activity to determine Y ma x ex perimentall y, Y max was fixed at 1.0 during fitting. […]

[2] = In 10 mM NaH2PO4, pH 7.2; ref [46]; cited from earlier work
Source text: Table 1 Binding constants of peptides to CX4. ^a) | column: K a (M^−1)

[3] = Dual-channel assay, CX4/LCG channel, POPC vesicles; type: in vitro ADME; details: dual-channel; seven independent POPC LUV batches (n = 7), penetratin 15 µM, Pep-1 10 µM, LRLLRW 30 µM, TP10 0.15 µM, 10 mM Hepes, 175 mM glucose, pH 7.5, t-test/ANOVA p < 0.001; melittin: Figure S35 and Table S9
Source text: With the established identical extravesicular conditions in both assays, we further envisaged a simultaneous measurement of both assays within the same solution to enhance the comparability of the measurements. This became possible after optimization of the excitation and emission wavelengths. […] A further optimization was required, because the dye concentrations in the CF assay and the CX4/LCG assay are largely different.^[ [51], [52] ^] Consequently, simultaneous monitoring requires the detection of a low amount of LCG in the presence of a high concentration of the much more brightly fluorescent CF, which challenges the dynamic range of a typical fluorescence spectrometer in a dual‐channel measurement. To reduce the fluorescence read‐out of CF, the excitation wavelength was shifted from the absorption maximum at ca. 490 nm to 525 nm, where CF has a much lower absorbance, and the emission in the CF channel was shifted from its maximum at ca. 515 nm to 545 nm to further reduce the fluorescence of CF. To maintain a high LCG fluorescence, excitation was performed at the absorption maximum at 369 nm. Since CF has a residual absorbance at this excitation wavelength, emission in the LCG channel was monitored at 475 nm instead of 502 nm to eliminate spill‐over of CF fluorescence into the LCG channel. […]
Time-dep endent fluores cence intensit y traces, I (t), were subsequentl y normalized to fractional intensities, If(t), using equation (1) and the concentration- dependent fractional intensities just before the addition of th e calibration co cktail, I f, w ere then normaliz ed to fr actional membran e activities, Y, using equation (2). The fractional membrane activities, Y, were subsequently plotted against the peptide concentration, c, and anal ysed using the Hill equation (3) to obtain the effective molar concentration, EC 50, and the Hill coefficient, n. For peptides with too low activity to determine Y max ex perimentall y, Y max was fixed at 1.0 during fitting. […]
Dual-Channel Measurements
Vesicles w ere prep ared a s described abov e (se e en try (4) in Table S2 and entry (3) in Table S3) and eluted with freshl y prepared 10 mM Hepes, 175mM glucos e, pH 7.5 i n the size exclusion chromatograph y. For the measurements, an approp riate volume o f the liposome stock solutions was diluted to 2m L in a 10× 10 mm PS cuvette wi th 10 mM Hep es bu ffer and 175 mM glucos e at pH 7.5 to afford 12.5µM POPC ⊃CX4/LCG-LUVs and 12.5 µM POPC⊃CF-LUVs (25 µM POPC total). The cuvette was placed into a thermostatted fluorimeter sample holder at 25.0 °C and gentl y stirred at 300 rpm. The fluorescence intensity w as simultaneous l y r eco rded in the CF chann el ( λ exc = 525 nm, λ em = 545 nm) and in the LCG channel ( λ exc = 369 nm, λ em = 475 nm) with an ex citation slit width of 5 nm and an emission slit width of 5 n m during addition of 20 µL peptide stock solution of varying concentrations at 60 s and 20 µL of a calibration

[4] = CX4/LCG tandem membrane assay with subsequent addition of spermine (transient vs stable pores); type: in vitro ADME; details: TP10 0.2 µM or melittin 5 nM at 60 s, spermine 20 µM at 340 s, 10 mM Hepes, 175 mM glucose, pH 7.5
Procedure: This means that TP10 renders the vesicle membranes only transiently permeable, while after some time, the pores “close”, most likely due to equilibration of the inside and outside concentrations of TP10. At sufficiently low TP10 concentrations, the vesicles have consequently released only some of their content after a certain incubation time and no further release of encapsulated compounds is observed thereafter. The transient nature of the TP10 pores was also confirmed herein by the CX4/LCG tandem membrane assay (Figure 4, black line). […] At this point of time, the TP10 pores should be either closed, or there should be some remaining stable equilibrium pores, which are too small to allow efflux of relatively large CX4 and/or LCG (MW > 500 Da), but sufficiently large to allow CF efflux (MW = 376 Da). Closed pores would refer to the previously reported graded mechanism, whereas the latter would point toward an all‐or‐none release mechanism.^[ [12], [70] ^] […] The newly developed assay has therefore the added capacity to afford more fine‐grained mechanistic information on membrane activity.
The blue trace is a control to illustrate full dissociation of the CX4/LCG complex during vesicle lysis by TX‐100.
LysisLysis vesicle lysisvesicle lysis […]
calibration cocktail at 600 s. a) Original changes in fluorescence intensity of LCG ( λex = 369 nm, λem = […]

[5] = type: binding; details: LCG displacement in 10 mM Hepes, pH 7.0, 25 °C; fluorescence; error = SD of nonlinear fit, n = 1
Procedure: Fluorescence titrations were performed as previously described and the resulting titration curves we re an al yz ed usi ng established pro cedur es . Competitive titrations were eithe r anal yz ed with a fitting function assuming 1:1 host-competitor complexes[3] or with a fitting function involving hi gher complex es with more than on e h ost bound per peptide.[4] In the latter c ase, an identical binding affinity is assumed for all binding sites. […]
Figure S1. a) Fluorescence titration of 0.5 µM LCG ( λex = 369 n m) with varying concentrations of CX4 in 10 mM Hepes, pH 7.0, 25 °C .b) Respective titration curve ( λem = 502 nm) with fitted line . […]
Figure S2. a) Competitive fluorescence titration wit h 0.5 µM LCG, 1 µM CX4 ( λex = 369 nm) and varying concentrations of penetratin in 10 mM Hepes, pH 7.0, 25 °C . b) Respective titration c ur ve (λem = 502 nm) with fitted line .
(also on this page, place not known: analyzed using procedures. were either analyzed host -competitor higher complexes one host case, 700 Intensity Intensity (λex °C. line. 650 0 Intensity 0 Intensity b) curve (λem nm) with line.)

SMILES	Y30µM, membrane activity, CX4/LCG assay [1]	K a, binding constant of peptide to CX4 [2]	membrane activity in the CX4/LCG channel compared with the CF channel [3]	kind of pores (fluorescence response to spermine added after the peptide) [4]	K a, binding constant of peptide to CX4 [5]
N=C(N)NCCC[C@H](NC(=O)[C@H](CCCNC(=N)N)NC(=O)[C@H](CCCNC(=N)N)NC(=O)[C@H](CCCNC(=N)N)NC(=O)[C@H](CCCNC(=N)N)NC(=O)[C@H](CCCNC(=N)N)NC(=O)[C@@H](N)CCCNC(=N)N)C(=O)O [Peptide R7, heptaarginine]	0.17	(7.2 ± 0.5) × 10^7 M^−1			
CC[C@H](C)[C@H](NC(=O)CN)C(=O)NCC(=O)N[C@@H](C)C(=O)N[C@H](C(=O)N[C@@H](CC(C)C)C(=O)N[C@@H](CCCCN)C(=O)N[C@H](C(=O)N[C@@H](CC(C)C)C(=O)N[C@H](C(=O)N[C@H](C(=O)NCC(=O)N[C@@H](CC(C)C)C(=O)N1CCC[C@H]1C(=O)N[C@@H](C)C(=O)N[C@@H](CC(C)C)C(=O)N[C@H](C(=O)N[C@@H](CO)C(=O)N[C@@H](Cc1c[nH]c2ccccc12)C(=O)N[C@H](C(=O)N[C@@H](CCCCN)C(=O)N[C@@H](CCCNC(=N)N)C(=O)N[C@@H](CCCCN)C(=O)N[C@@H](CCCNC(=N)N)C(=O)N[C@@H](CCC(N)=O)C(=O)N[C@@H](CCC(N)=O)C(N)=O)[C@@H](C)CC)[C@@H](C)CC)[C@@H](C)O)[C@@H](C)O)C(C)C)C(C)C [Melittin]			higher activity with the CF assay	forms stable equilibrium pores	(1.2 ± 0.3) × 10^7 M^−1
N=C(N)NCCC[C@H](NC(=O)[C@H](CCCNC(=N)N)NC(=O)[C@H](CCCNC(=N)N)NC(=O)[C@H](CCCNC(=N)N)NC(=O)[C@H](CCCNC(=N)N)NC(=O)[C@H](CCCNC(=N)N)NC(=O)[C@H](CCCNC(=N)N)NC(=O)[C@H](CCCNC(=N)N)NC(=O)[C@@H](N)CCCNC(=N)N)C(=O)O [Peptide R9, nonaarginine]	0.11				(1.8 ± 0.4) × 10^8 M^−1
